Reference: PubChem BioAssay (NCI)
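Method: 48-hour compound exposure of cells in 96-well plates, five concentrations, linear interpolation of endpoints. Here, GI50 denotes the concentration required for 50% inhibition of growth. TGI is the concentration that stops growth completely.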

What was measured:
Test in all cases: NCI anticancer screen, dose series, 48 h
[1] = tested on: COLO 205 colon
[2] = tested on: HCT-116 colon
[3] = tested on: HOP-62 NSCLC
[4] = tested on: HT29 colon
[5] = tested on: IGROV1 ovarian
[6] = tested on: K-562 leukemia
[7] = tested on: LOX IMVI melanoma
[8] = tested on: MDA-MB-435
[9] = tested on: SF-268 CNS
[10] = tested on: UACC-62 melanoma

Structure (SMILES)	TGI [1]	TGI [2]	TGI [3]	TGI [4]	TGI [5]	TGI [6]	TGI [7]	TGI [8]	TGI [9]	TGI [10]	GI50 [1]	GI50 [2]	GI50 [3]	GI50 [4]	GI50 [5]	GI50 [6]	GI50 [7]	GI50 [8]	GI50 [10]
CCN(CC)Cc1ccc2cccnc2c1O	42 µM	41.8 µM	65.4 µM	12.8 µM	18.4 µM	> 100 µM	> 100 µM	> 100 µM	> 100 µM	> 100 µM	–	–	–	–	–	–	–	–	–
Cc1ccc(C)c(/C(=N\N=C(N)N)C2CC2)c1	> 100 µM	82.7 µM	> 100 µM	> 100 µM	> 100 µM	69.6 µM	> 100 µM	63.9 µM	> 100 µM	> 100 µM	–	–	–	–	–	–	–	–	–
Oc1cc(O)cc(/C=C/c2ccc(O)c(O)c2)c1	> 62.1 µM	20.9 µM	28.7 µM	57 µM	32.1 µM	> 58.9 µM	> 41.7 µM	–	56.3 µM	15 µM	–	–	–	–	–	–	–	–	–
CC(C)CNc1nc(N)[nH]c(=O)c1NC=O	> 100 µM	> 100 µM	> 100 µM	> 100 µM	> 100 µM	> 100 µM	> 100 µM	> 100 µM	> 100 µM	> 100 µM	–	–	–	–	–	–	–	–	–
c1ccc([C@@H]2N[C@@]3(CO[Si](c4ccccc4)(c4ccccc4)c4ccccc4)CC[C@H]4CN[C@@H]2[C@H]43)cc1	3.14 µM	11.9 µM	31.2 µM	7.17 µM	26.7 µM	> 100 µM	24 µM	20.8 µM	22.6 µM	28.2 µM	–	–	–	–	–	–	–	–	–
O=C1c2ccccc2C(=O)c2c(NCCNC(=O)C3CCCN3)ccc(NCCNC(=O)C3CCCN3)c21 (stereo not drawn)	> 100 µM	27.5 µM	> 100 µM	> 100 µM	> 100 µM	52.2 µM	1.58 µM	> 100 µM	> 100 µM	> 100 µM	–	–	–	–	–	–	–	–	–
Cc1ncc(CO)c(CN)c1O	> 100 µM	> 100 µM	> 100 µM	> 100 µM	> 100 µM	> 100 µM	> 100 µM	> 100 µM	> 100 µM	> 100 µM	–	–	–	–	–	–	–	–	–
COc1cc2c(cc1OC)C1C(O)C(OC)C=C3CC[N+](C)(C2)C31 (stereo not drawn)	> 100 µM	> 100 µM	> 100 µM	> 100 µM	> 100 µM	–	–	> 100 µM	> 100 µM	> 100 µM	–	–	–	–	–	–	–	–	–
C[C@H]1CCC/C=C/[C@@H]2C[C@H](O)C[C@H]2[C@H](O)[C@@H](S(=O)CCN)CC(=O)O1 (stereo partly drawn)	0.0436 µM	0.169 µM	> 58.9 µM	0.0378 µM	–	> 100 µM	0.101 µM	> 92.8 µM	> 100 µM	> 82 µM	< 0.0156 µM	0.0569 µM	0.13 µM	< 0.0158 µM	0.166 µM	0.132 µM	0.031 µM	0.0513 µM	0.0197 µM
Cn1cnc2c(OCC3CCCCC3)nc(N)nc21	> 100 µM	> 100 µM	> 100 µM	> 100 µM	> 100 µM	> 100 µM	> 100 µM	> 100 µM	> 100 µM	> 100 µM	–	–	–	–	–	–	–	–	–
CN(C)CCNC(=O)c1cccc2nc3c4ccccc4c4ccccc4c3nc12	19.3 µM	3.21 µM	34.2 µM	3.01 µM	12.3 µM	3.57 µM	3.13 µM	3.42 µM	0.632 µM	5.51 µM	–	–	–	–	–	–	–	–	–
O=C(c1cc(Br)ccc1O)c1cc(Br)ccc1O	33.4 µM	29.4 µM	34.3 µM	31.7 µM	27.8 µM	33.5 µM	36.8 µM	29.3 µM	42.4 µM	25.8 µM	–	–	–	–	–	–	–	–	–
COc1cc2ccc1-c1cc(ccc1O)CC1c3cc4c(cc3CCN1C)Oc1c(OC)cc3c(c1O4)C(C2)N(C)CC3 (stereo not drawn)	–	2.89 µM	3.65 µM	3.27 µM	4.35 µM	3.27 µM	3.75 µM	–	3.52 µM	3.44 µM	–	–	–	–	–	–	–	–	–
C=CCNC(=O)/C(Cc1cc(Br)c(OC)c(Br)c1O)=N\O	26 µM	12.7 µM	22.9 µM	35 µM	47.8 µM	> 100 µM	55 µM	2.69 µM	15.7 µM	34.8 µM	–	–	–	–	–	–	–	–	–
